Experimental data published in patent US7074761B1, “Peptides and production and use thereof” (Takeda Chemical Ind., Ltd., priority 1996, dated 2006).
Where a SMILES comes first, the peptide text is derived from it. Bridges are numbered along the chain shown (N, C = ends).

Key:
human SSTR2 = target: T1, human SSTR2 (Homo sapiens, UniProt P30874); assay: cAMP accumulation inhibiting activity in SSTR2 expressing CHO cells (forskolin stimulated); assay type: cell-based; conditions: forskolin 10 μM, CHO cells SSTR2-HS5-9; read-out: ED50, inhibition of intracellular cAMP accumulation, SSTR2
T1 construct: expressed in transfected cells; host or cells: CHO(dhfr-) cells, clone SSTR2-HS5-9, plasmid pAC01 (vector pAKKO-111)
Procedure: For measuring the intracellular accumulations of cyclic adenosine 3′,5′-monophosphate (cAMP), the human somatostatin receptor expressing cell lines SSTR2-HS5-9, SSTR3-15-19, SSTR4-1-2 and SSTR5-32-4 respectively described in Reference Example 2 (3), Reference Example 3 (3), Reference Example 4 (3) and Reference Example 5 (3) were multiplied on 24-well plates until confluency. Said cells were washed with two 1-ml portions of medium A [Dulbecco-'s modified Eagle's medium (DMEM), 20 mM 2-[4-(2-hydroxyethyl)-1-piperazinyl]ethanesulfonic acid (HEPES) (pH. 7.5), 0.2% BSA, 0.2 mM 3-isobutyl-1-methylxanthine (IBMX)] and then 400 μl of medium A was added to each well and incubation was carried out at 37° C. for 1 hour. To each well were added 50 μl of a hCS-15 or hCS-17 solution (each diluted to a concentration 10 times the final concentration with medium A) and 50 μl of a forskolin solution (final concentration: 10 μM), and incubation was carried out at 37° C. for 30 minutes. The cells were washed with two 1-ml portions of medium A and then 500 μl of medium A and 100 μL of 20% aqueous perchloric acid solution were added to each well, followed by standing at 4° C. for 20 minutes for cell lysis. […] The amount of cAMP contained in this extract was determined using an Amersham's kit (cAMP EIA system).

rat electroencephalogram = assay: Effect on the rat electroencephalogram (sleep-wakefulness); assay type: in vivo
Procedure: Using male Jcl:Wistar rats (b. wt. 300˜350 g, approx.) under pentobarbital anesthesia (50 mg/kg, i.p.), the head was immobilized in a rat brain stereotaxic apparatus and the skull was drilled for placement of a screw electrode for cortical derivation and a stainless steel bipolar electrode for hippocampal derivation (A:−2.6, L:2.5, H:3.5, Pellegrino and Cushman Brain Atlas). A bipolar stainless steel needle electrode for recording an electromyogram was also inserted into the muscle layer in the dorsocervical region. All the electrodes were connected to a socket on the cranium and fixed with a dental cement. For administration of the test drug solution into the paracele, a 27-G stainless steel guide cannula was inserted in such a manner that the coordinates of its tip would be A:−0.4, L:1.7, H:1.7, and was fixed together with the EEG electrodes using a dental cement. A stilet was inserted into the guide cannula to prevent plugging of the cannula bore by tissue and blood. After postoperative recovery, the animal was submitted to the experiment. The rat was acclimatized to the experimental environment for at least 1 hour and either hCS-17 dissolved in phosphate buffered saline (PBS) or PBS was administered into the paracele via a 30-G infusion cannula. The electroencephalogram was recorded for 4 hours following administration of the test drug. The dose volume was 5 μl and the dose was 0.1 or 1 nmol. Control animals were similarly dosed with PBS.
The sleep-wakefulness was monitored by visual reading of the polygram and evaluated by frequency analysis and power analysis and classified into the following categories.
During this time, electromyographic activity is high.
(2) SWS1 (Shallow-and-Slow Wave Sleep) and SWS2 (Deep-and-Slow Wave Sleep):
The rat assumes a sleeping posture and delta waves (spindle waves) or high-amplitude, slow-waves appear in the cerebral cortex and high-amplitude, slow-waves, appear in the hippocampal derivation. During this period, electromyographic activity is decreased (SWS1) or absent (SWS2).
(3) PS (Paradoxical Sleep):
Alpha waves (low-amplitude, fast waves) appear in the cerebral cortex and theta waves (rhythmic waves) in the hippocampal derivation. During this period, electromyographic activity is absent.
Using 5˜6 rats per group, hCS-17 and PBS were respectively injected into the same rat to evaluate the relative effect on wakefulness. Analysis for statistical significance was made by paired t-test.

T1 sequence (P30874 whole entry): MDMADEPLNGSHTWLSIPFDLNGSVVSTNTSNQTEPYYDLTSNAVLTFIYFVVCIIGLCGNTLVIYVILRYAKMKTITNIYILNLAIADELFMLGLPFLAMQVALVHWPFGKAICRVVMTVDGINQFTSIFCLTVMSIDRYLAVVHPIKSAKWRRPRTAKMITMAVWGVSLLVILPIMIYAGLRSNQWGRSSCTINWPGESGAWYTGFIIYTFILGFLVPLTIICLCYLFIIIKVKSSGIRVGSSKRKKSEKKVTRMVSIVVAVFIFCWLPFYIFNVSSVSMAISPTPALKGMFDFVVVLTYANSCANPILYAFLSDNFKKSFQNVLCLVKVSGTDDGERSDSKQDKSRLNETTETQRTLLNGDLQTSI

Row | EC50 (human SSTR2) [nM] | SMILES | PS (paradoxical sleep) occupancy time vs PBS (rat electroencephalogram; 0.1 nmol into the paracele) | SWS1 (shallow-and-slow wave sleep) occupancy time vs PBS (rat electroencephalogram; 0.1 nmol into the paracele) | SWS2 (deep-and-slow wave sleep) occupancy time vs PBS (rat electroencephalogram; 0.1 nmol into the paracele) | animals showing flattening of the EEG patterns (rat electroencephalogram; 0.1 nmol into the paracele) | wakefulness time (percent occupancy of 4 hour EEG recording) vs PBS (rat electroencephalogram; 0.1 nmol into the paracele) | PS (paradoxical sleep) occupancy time vs PBS (rat electroencephalogram; 1 nmol into the paracele) | SWS1 (shallow-and-slow wave sleep) occupancy time vs PBS (rat electroencephalogram; 1 nmol into the paracele) | SWS2 (deep-and-slow wave sleep) occupancy time vs PBS (rat electroencephalogram; 1 nmol into the paracele) | animals showing flattening of the EEG patterns (rat electroencephalogram; 1 nmol into the paracele) | duration of flattening of cortical and hippocampal EEG patterns (rat electroencephalogram; immediately after administration into the paracele)
1 | 7 | CSCC[C@H](N)C(=O)N1CCC[C@H]1C(=O)N[C@H]1CSSC[C@@H](C(=O)N[C@@H](CCCCN)C(=O)O)NC(=O)[C@H](CO)NC(=O)[C@H](CO)NC(=O)[C@H](Cc2ccccc2)NC(=O)[C@H]([C@@H](C)O)NC(=O)[C@H](CCCCN)NC(=O)[C@H](Cc2c[nH]c3ccccc23)NC(=O)[C@H](Cc2ccccc2)NC(=O)[C@H](Cc2ccccc2)NC(=O)[C@H](CC(N)=O)NC(=O)[C@H](CCCNC(=N)N)NC1=O [hCS-15] (H-MPCRNFFWKTFSSCK-OH; disulfide 3-14; N-terminus and C-terminus assumed) | – | – | – | – | – | – | – | – | – | –
2 | – | CSCC[C@H](NC(=O)[C@H](CCCNC(=N)N)NC(=O)[C@@H](N)CC(=O)O)C(=O)N1CCC[C@H]1C(=O)N[C@H]1CSSC[C@@H](C(=O)N[C@@H](CCCCN)C(=O)O)NC(=O)[C@H](CO)NC(=O)[C@H](CO)NC(=O)[C@H](Cc2ccccc2)NC(=O)[C@H]([C@@H](C)O)NC(=O)[C@H](CCCCN)NC(=O)[C@H](Cc2c[nH]c3ccccc23)NC(=O)[C@H](Cc2ccccc2)NC(=O)[C@H](Cc2ccccc2)NC(=O)[C@H](CC(N)=O)NC(=O)[C@H](CCCNC(=N)N)NC1=O [hCS-17] | significantly decreased | tendency toward decrease | toward increase | 2 out of 5 | not different from the PBS control group | decrease | significant decrease | increase | 4 out of 6 | 3˜5 minutes
